Experimental data published in US9226912B2, “Acetyltanshinone IIA (ATA) as anticancer agent” (Nanyang Technological University, priority 2011, dated 2016).

Experiments:
ERα in BT474 cells = biological target: T1, ERα in BT474 cells (Homo sapiens, UniProt P03372); experiment: ERα protein level by Western blotting; assay type: cell-based; details: 6 μM ATA or 1 μM fulvestrant
T1 construct: endogenous in cells; host or cells: BT474 human breast cancer cells
Method: Cells were treated with 6 μM ATA or 1 μM fulvestrant for indicated times and analyzed by Western blotting.

[1] = tested on: Bax and cytochrome c in MDA-MB-435 cells; experiment: Bax translocation and cytochrome c release, cell fractionation Western blot and immunofluorescence; assay type: cell-based, human; details: 20 μM PG, 5 μM ATA, 24 h
Method: The concentration of ATA and PG were 5 μM and 20 μM, respectively. […] Scale bar=10 μm.
The value of CY/MT represents the ratio of integrated band intensity of cytosol fraction (CY) over corresponding integrated band intensity of mitochondrial fraction (MT). The ratio was normalized by the control group. Two proteins were used as internal markers to judge the quality of cell fractionation experiment: Cox IV for mitochondria and β-tubulin mainly for cytosol.
The subcellular localization changes of Bax and cytochrome c during ATA-induced apoptosis were first examined using immunofluorescence staining.
(§1) It was further tested, whether PG could prevent ROS generation after ATA treatment.

ROS in MDA-MB-435 cells = experiment: ROS generation and its prevention by PG; assay type: cell-based, human; details: pre-treating cells with 20 μM PG
Method: (A) PG prevented ATA-induced cell death. Three concentrations of PG were tested for their protective effects on ATA-induced cell death. The cell viability was measured by SRB assay. (* p<0.01). (B) PG protected ROS generation caused by ATA treatment. […] All the experiments were performed at least three times. The results presented in this figure are the average of three experiments. Error bar represents standard deviation. Scale bar=20 μm.
as §1

MCF-7/HER2 cells = experiment: Growth inhibition of HER2 over-expressing cells at 72 h; assay type: cell-based; details: paclitaxel 1×10^−3 μM to 10 μM; ATA 0.78 μM to 6.25 μM
Text: The efficacy of ATA on MCF-7 cells with over-expressed HER2 protein was investigated.

MCF-7 cells = experiment: Combinatorial effect of ATA with paclitaxel, MTT assay; assay type: cell-based; details: Homo sapiens, MCF7, paclitaxel alone at 1 nM, read-out: cell growth inhibition rate
Method: The effect was determined by measuring the rates of cell growth inhibition using MTT assay. (* p<0.01, compared with cells treated with either paclitaxel alone or ATA alone).
The inventors of the present invention have shown for the first time that ATA can increase the cytotoxic effect of paclitaxel. In the tests (FIG. 16) with five concentrations of ATA at 10, 5, 2.5, 1.25, 0.625 μM and five concentrations of paclitaxel at 1000, 100, 10, 1, 0.1 nM were used.

[2] = tested on: GREB1 mRNA in MCF-7 cells; experiment: Real-time PCR of GREB1 mRNA level; details: 100 pM estrogen plus 6 μM compound, 24 h, normal medium
Method: In order to do so, the mRNA level of a non-ER regulated gene GAPDH was measured and used as a reference. MCF-7 cells cultured in the charcoal-stripped medium were used as a control.

ESR1 mRNA in MCF-7 cells = experiment: Real-time PCR of ESR1 mRNA level; details: 100 pM estrogen plus 6 μM compound, 24 h
Method: MCF-7 cells cultured in the charcoal-stripped medium were used as control for the 0 h sample.

HeLa cells = experiment: ATA-induced cell death by cell counting under a microscope; assay type: cell-based; details: 2 μM z-VAD-fmk pre-treatment 2 h, then 10 or 20 μM ATA, 24 h and 48 h
Method: HeLa cells were treated with 10 μM ATA for 12, 24, 36, and 48 h. The β-tubulin protein was probed as a loading control. […] HeLa cells were pre-treated with 2 μM pan-caspase inhibitor (z-VAD-fmk) for 2 h before ATA addition. Then 10 μM or 20 μM ATA were added. After 24 h and 48 h treatment, the number of died cells was counted under a microscope. (* p<0.01, compared with cells treated with ATA only). Control: cells without any treatment.
Overexpression of Bcl-2 inhibited ATA-induced cell death. HeLa cells transfected with either yellow fluorescent protein (YFP) (vector control) or YFP-Bcl-2 (Bcl-2) were treated with ATA at 10 or 20 μM. The percentage of cell death from YFP-positive cells was determined by cell counting under a fluorescence microscope. (* p<0.01, compared with vector control groups).
The inventors of the present invention have shown for the first time that ATA can activate the apoptotic pathway in cancer cells. […]
HeLa cells transfected with YFP-Bcl-2 or YFP only were treated with 10 μM or 20 μM ATA. After 24 h or 48 h treatment, the percentage of cell death in each sample was calculated by counting the numbers of fluorescence-positive cells either live (attached with a normal cell morphology) or dead (detached with a shrunk morphology) under a fluorescence microscope. […]

T1 sequence (P03372 whole entry): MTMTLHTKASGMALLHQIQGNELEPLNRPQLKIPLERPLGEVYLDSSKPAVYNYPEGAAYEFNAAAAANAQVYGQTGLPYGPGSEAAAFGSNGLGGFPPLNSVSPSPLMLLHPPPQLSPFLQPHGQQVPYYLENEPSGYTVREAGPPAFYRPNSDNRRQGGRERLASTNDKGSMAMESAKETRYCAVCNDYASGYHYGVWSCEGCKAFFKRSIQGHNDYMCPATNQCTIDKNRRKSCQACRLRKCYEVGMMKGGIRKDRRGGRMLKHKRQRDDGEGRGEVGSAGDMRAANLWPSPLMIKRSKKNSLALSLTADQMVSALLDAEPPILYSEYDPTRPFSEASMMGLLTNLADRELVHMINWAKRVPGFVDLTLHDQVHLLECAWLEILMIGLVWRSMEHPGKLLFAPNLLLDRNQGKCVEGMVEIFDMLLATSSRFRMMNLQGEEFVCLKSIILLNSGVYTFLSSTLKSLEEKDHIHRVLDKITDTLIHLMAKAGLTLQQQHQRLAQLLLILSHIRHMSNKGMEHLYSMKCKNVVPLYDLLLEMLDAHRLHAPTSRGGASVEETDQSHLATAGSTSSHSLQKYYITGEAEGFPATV

Compound: C[C@]12CC[C@@H]3c4ccc(O)cc4C[C@@H](CCCCCCCCC[S+]([O-])CCCC(F)(F)C(F)(F)F)[C@H]3[C@@H]1CC[C@@H]2O (stereo partly drawn) [Fulvestrant, fulvestrant, reference compound]
- level of ERα (ERα in BT474 cells): only reduced ERα

Compound: CCCOC(=O)c1cc(O)c(O)c(O)c1 [PG, propyl gallate, reference compound]
- effect on Bax translocation and cytochrome c release in ATA-treated cells [1]: could effectively prevent
- effect on ATA-induced ROS level increase (ROS in MDA-MB-435 cells): completely prevented

Compound: CC(=O)O[C@H]1C(=O)[C@@]2(C)[C@H]([C@H](OC(=O)c3ccccc3)[C@]3(O)C[C@H](OC(=O)[C@H](O)[C@@H](NC(=O)c4ccccc4)c4ccccc4)C(C)=C1C3(C)C)[C@]1(OC(C)=O)CO[C@@H]1C[C@@H]2O [paclitaxel, reference compound]
- sensitivity of MCF-7/HER2 cells compared with MCF-7 cells (MCF-7/HER2 cells): more resistance to paclitaxel than MCF-7 cells
- inhibition at 0.001 µM (MCF-7 cells): ~40%

Compound: CC/C(=C(\c1ccccc1)c1ccc(OCCN(C)C)cc1)c1ccccc1 [tamoxifen, reference compound]
- GREB1 level of the control [2]: comparable
- level of ESR1 mRNA over control (ESR1 mRNA in MCF-7 cells; charcoal-stripped medium): about 70%
- level of ESR1 mRNA over control (ESR1 mRNA in MCF-7 cells; normal medium): only slightly decreased

Compound: z-VAD-fmk [reference compound]
- effect on ATA-induced cell death (HeLa cells): could be inhibited
